Results from paper PMC6449294, “SNAPshots of the MCHR1: a Comparison Between the PET-Tracers [^18F]FE@SNAP and [^11C]SNAP-7941” (Molecular Imaging and Biology, 2018).

Experiments:
MCHR1 = target: MCHR1; parameters: method as in PMID 28808288; conditions: previous experiments; read-out: Affinity to MCHR1 (Ki); cited from earlier work
[1] = target: T1, human serum albumin (HSA) (Homo sapiens, UniProt P02768); experiment: Plasma protein binding using bioaffinity chromatography (CHIRALPAK HSA); type: in vitro ADME; conditions: bioaffinity chromatography on HSA stationary phase
T1 construct: purchased Daicel Chemical Industries CHIRALPAK HSA, column-batch H13L-2405
T1 sequence (P02768 25-609): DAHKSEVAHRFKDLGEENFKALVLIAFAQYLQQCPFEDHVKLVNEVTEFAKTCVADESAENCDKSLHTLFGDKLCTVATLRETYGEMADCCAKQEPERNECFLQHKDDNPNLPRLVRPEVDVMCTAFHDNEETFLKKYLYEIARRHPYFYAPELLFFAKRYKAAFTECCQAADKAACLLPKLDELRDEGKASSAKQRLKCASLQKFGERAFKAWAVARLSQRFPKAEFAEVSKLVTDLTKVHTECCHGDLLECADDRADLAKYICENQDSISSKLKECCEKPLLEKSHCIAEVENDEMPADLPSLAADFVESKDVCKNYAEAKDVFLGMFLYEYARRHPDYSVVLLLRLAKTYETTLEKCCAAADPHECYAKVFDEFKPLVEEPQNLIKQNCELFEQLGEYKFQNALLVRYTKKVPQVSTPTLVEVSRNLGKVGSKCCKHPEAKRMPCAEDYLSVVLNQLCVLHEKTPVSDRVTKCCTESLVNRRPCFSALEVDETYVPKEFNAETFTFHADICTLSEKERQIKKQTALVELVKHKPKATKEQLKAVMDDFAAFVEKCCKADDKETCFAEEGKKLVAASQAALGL
Protocol: The binding of (±)-SNAP-7941 and FE@SNAP to human serum albumin (HSA) was examined by bioaffinity chromatography according to a previously published manuscript. In short, the analytes were diluted in 2-propanol and ammonium acetate buffer (0.5 mg/ml) and injected on the CHIRALPAK®HSA stationary phase (50 × 3 mm, 5 μm pore size, column-batch: H13L-2405, Daicel Chemical Industries, West Chester, PA, USA). Prior the experiments, the column was calibrated with reference standards, and the resulting regression equation was used to convert the logarithmic capacity factors (log(k′)) to the percent of plasma protein binding (%PPB). The calibration curves, as well as the experiments, were performed by triplicate injections and at least three times.

SMILES	Ki (MCHR1)	Plasma protein binding (%PPB) / Binding to human serum albumin [1]
COCC1=C(C(=O)OC)[C@H](c2ccc(F)c(F)c2)N(C(=O)NCCCN2CCC(c3cccc(NC(C)=O)c3)CC2)C(=O)N1 (racemic) [(±)-SNAP-7941, reference compound]	3.91 ± 0.74 nM	80 ± 0.9%
COCC1=C(C(=O)OCCF)C(c2ccc(F)c(F)c2)N(C(=O)NCCCN2CCC(c3cccc(NC(C)=O)c3)CC2)C(=O)N1 (racemic) [FE@SNAP, (±)-(2-fluoroethyl)-3-{[(3-{4-[3-(acetylamino)phenyl]-1-piperidinyl}propyl)amin]carbonyl}-4-(3,4-difluorophenyl)-6-(methoxymethyl)-2-oxo-1,2,3,4-tetra-hydro-5-pyrimidenecarboxylate]	9.98 ± 1.12 nM	77 ± 0.2%
